# Assay: not given
# Details: not given
row,logP,SMILES
1,3.57,FC(F)(F)c1nc2cc(Br)ccc2[nH]1
2,3.78,FC(F)(F)c1nc2c(Cl)c(Cl)cc(Cl)c2[nH]1
3,3.19,Cc1c(C)c(Cl)c2[nH]c(C(F)(F)F)nc2c1Cl
4,4.38,CCCCCCCCc1ccc2[nH]c(C(F)(F)F)nc2c1
5,2.87,FC(F)(F)c1nc2c(Cl)ccc(Cl)c2[nH]1
6,3.87,FC(F)(F)c1nc2c(Cl)c(Cl)c(Cl)cc2[nH]1
7,3.49,FC(F)(F)c1nc2c(Cl)cc(Cl)cc2[nH]1
8,3.22,CSc1nc2cc(Cl)ccc2[nH]1
9,1.85,Clc1nc(Cl)c(Cl)[nH]1
10,4.08,FC(F)(F)c1nc2c(Br)c(Br)c(Br)cc2[nH]1
11,3.08,Brc1nc(Br)c2[nH]c(Br)nc2n1
12,4.81,FC(F)(F)c1nc2c(Br)c(Br)c(Br)c(Br)c2[nH]1
13,4.27,CCCCc1ccc2[nH]c(C(F)(F)F)nc2c1
14,3.49,FC(F)(F)c1nc2c(Cl)c(Cl)ccc2[nH]1
15,2.93,FC(F)(F)c1nc2c(Cl)cccc2[nH]1
16,2.78,Ic1nc(I)c(I)[nH]1
17,4.15,FC(F)(F)c1nc2cc(Br)c(Br)cc2[nH]1
18,2.68,O=[N+]([O-])c1ccc2[nH]c(C(F)(F)F)nc2c1
19,2.24,Brc1n[nH]c(Br)n1
20,3.39,FC(F)(F)c1nc2cc(Cl)ccc2[nH]1
21,2.67,FC(F)(F)c1nc2ccccc2[nH]1
22,3.97,FC(F)(F)c1nc2c(Cl)c(Cl)c(Cl)c(Cl)c2[nH]1
23,3.99,FC(F)(F)c1nc2cc(Cl)c(Cl)cc2[nH]1
24,2.44,Brc1nn[nH]c1Br

row,SMILES,logP
1,Cc1cc2nc[nH]c2cc1C,2.35

# Assay: from Büchel, K. H., & Draber, W. (1969). Structure-activity relationship of photosynthesis inhibition by NH-acidic pi-excessive heteroaromatics. In H. Metzner (Ed.), Progress in Photosynthesis Research: …
# Details: pH 7.3
row,logD,SMILES
1,3.08,FC(F)(F)c1nc2nc3ccccc3nc2[nH]1
2,2.46,FC(F)(F)c1nc2ncc(Cl)cc2[nH]1
3,1.38,FC(F)(F)c1nc2ncccc2[nH]1
4,3.91,FC(F)(F)c1nc2nc3cc(Cl)ccc3nc2[nH]1
5,0.94,FC(F)(F)c1nc2cnccc2[nH]1
6,5.18,FC(F)(F)c1nc2nc3c(Cl)cc(Cl)cc3nc2[nH]1
